Laboratory results: BindingDB's records for doi:10.1074/jbc.M114.573162 (German Institute of Human Nutrition Potsdam-Rehbruecke, 2014)

Biological target: T1, Olfactory receptor class A-like protein 1 (Zebrafish, UniProt A0A0R4IM31)
T1 sequence (A0A0R4IM31 whole entry): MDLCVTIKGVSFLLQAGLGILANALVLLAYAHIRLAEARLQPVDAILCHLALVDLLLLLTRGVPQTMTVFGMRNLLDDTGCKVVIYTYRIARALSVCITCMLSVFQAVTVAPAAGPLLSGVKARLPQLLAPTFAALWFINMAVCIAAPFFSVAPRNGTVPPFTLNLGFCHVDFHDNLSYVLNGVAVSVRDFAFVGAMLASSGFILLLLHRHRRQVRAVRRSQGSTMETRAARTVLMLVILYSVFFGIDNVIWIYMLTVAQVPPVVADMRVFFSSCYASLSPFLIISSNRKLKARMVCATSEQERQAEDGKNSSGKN
Assay: Functional Calcium Imaging Assay
Settings: pH 7.4
Experimental: Briefly, HEK 293T cells stably expressing the G protein-chimera Gα16gust44 were seeded onto 96-well plates coated with 10 μg/ml of poly-D-lysine. The next day cells were transiently transfected with ORA1, ORA2, or human bitter taste receptor TAS2R16 constructs using Lipofectamine 2000 (Invitrogen). After 24 h the cells were washed with buffer C1 (130 mM NaCl, 5 mM KCl, 10 mM Hepes, pH 7.4, 2 mM CaCl2, 10 mM glucose), and loaded with the calcium-responsive dye Fluo-4 AM in the presence of 1 mM probenecide, an inhibitor of […]. To remove excessive fluorescence dye, cells were washed three times with buffer C1 and transferred into a fluorometric imaging plate reader (FLIPR, Molecular Devices) for measurement. Test substances were dissolved in C1 buffer and the changes in fluorescence after application of test substances were monitored.

| Structure (SMILES) | EC50 [µM] |
| --- | --- |
| O=C(O)Cc1ccc(Cl)cc1 [2-(4-chlorophenyl)acetic acid] | 16.6 |
| O=C(O)Cc1ccc(O)cc1 [2-(4-hydroxyphenyl)acetic acid] | 1.9 |
| O=C(O)Cc1ccc2c(c1)OCO2 [3,4-Methylenedioxyphenylacetic acid] | 16 |
| O=C(O)CCc1ccc(O)cc1 [3-(4-Hydroxyphenyl)-propionic acid] | 192 |
| Nc1ccc(CC(=O)O)cc1 [4-Aminophenylacetic acid] | 91.7 |
| COc1ccc(CC(=O)O)cc1 [4-Methoxyphenylacetic acid] | 16.5 |
| Cc1ccc(C(=O)CC(=O)O)cc1 [4-Toloylacetic acid] | 14.8 |
| CC(C(=O)O)c1ccc(O)cc1 (stereo not given) [Methyl-4-hydroxyphenylacetic acid] | 221 |
| O=C(O)Cc1ccccc1 [Phenylacetate, XIX] | 30.5 |
| O=C(O)Cc1ccc(O)c(O)c1 [SMR000326727] | 22.8 |
